Assay results taken from patent US20250019370A1, “L-LYSINE SALT OF 4-CHLORO-5-[4-(2,6-DICHLOROPHENYL)SULFONYLPIPERAZIN-1-YL]-1-BENZOFURAN-2-CARBOXYLIC ACID AND VARIOUS FORMS THEREOF” (ENYO PHARMA, priority 2023, published 2025).

How the values were obtained:
[1] = Solubility kinetics in FaSSIF medium; format: physicochemical; conditions: after 24 h; for Soluble fraction: 37° C.; for pH: pH given with the soluble fraction
Procedure: The solubility kinetics of the salt forms as well as the native EYP001 free acid form were determined in FaSSIF and FeSSIF media, and in a pH 4.5 acetate buffer as detailed below: The samples were prepared by adding an excess of each tested bulk (salt or native EYP001) to a given volume of test medium. The suspension was stirred by orbital stirring over 1 hour (in both pH 4.5 acetate buffer and FeSSIF medium) or 24 hours ([…] medium) at 37° C., protected from light. In FaSSIF medium, the soluble concentration was assessed after 24 hours of stirring. […] At each time point, the “supernatant” was isolated and diluted in a solvent mixture allowing its injection into the chromatographic system. The concentration in solution in the test medium was determined by HPLC with external standardization.

[2] = Dynamic Vapor Sorption (DVS) analysis (gas water sorption); format: physicochemical; conditions: for water uptake upon sorption (DVS): 25° C./95% RH; for hygroscopicity (DVS): hygroscopic above 2% mass gain at 25° C./60% RH
Procedure: The dynamic vapor sorption (DVS) analysis (gas water sorption) was performed on a DVS-Intrinsic incubator (SMS Ltd), equipped with DVS-Intrinsic Control Software 1.0. The sample, placed in an aluminium basket holder, was submitted to a full-cycle analysis (sorption followed by desorption cycle) under the following conditions:
The sample was first pre-dried under a stream of dry air until a stabilized sample mass was observed. Then, the relative humidity was increased by 5% increments. At each step, the sample mass was allowed to increase until equilibrium is reached (according to a given dm/dt target), and then a new relative humidity rise occurred. Relative humidity was ramped up to 95%. After equilibration at this point, desorption began in a similar stepwise manner, with sample mass decrease again allowed to stabilize after each incremental humidity decrease.
With both segments of the above-described method, the sample mass recording allowed describing of the whole vapor water sorption/desorption behaviour versus relative humidity.

[3] = Thermogravimetric analysis (TGA), mass losses upon heating; format: physicochemical
Procedure: Thermogravimetric analysis was performed on a TA Instruments TGA Hi-Res 2950 apparatus equipped with an evolved gas analysis furnace. A sample was placed in an opened aluminium basket and analysed according to the following conditions: […]

[4] = Solubility kinetics in pH 4.5 acetate buffer; format: physicochemical; conditions: 37 ° C., listed as EYP001 L-Lysine salt (Form VI)
Procedure: The solubility kinetics of the salt forms as well as the native EYP001 free acid form were determined in FaSSIF and FeSSIF media, and in a pH 4.5 acetate buffer as detailed below:
The samples were prepared by adding an excess of each tested bulk (salt or native EYP001) to a given volume of test medium. The suspension was stirred by orbital stirring over 1 hour (in both pH 4.5 acetate buffer and FeSSIF medium) or 24 hours (inFaSSIF medium) at 37° C., protected from light.
In pH 4.5 acetate buffer, the soluble concentration was assessed after 0.5 hour and 1 hour of stirring.
At each time point, the “supernatant” was isolated and diluted in a solvent mixture allowing its injection into the chromatographic system. The concentration in solution in the test medium was determined by HPLC with external standardization.

[5] = Solubility kinetics in FeSSIF medium; format: physicochemical; conditions: for Soluble fraction: 37 ° C.
Procedure: The solubility kinetics of the salt forms as well as the native EYP001 free acid form were determined in FaSSIF and FeSSIF media, and in a pH 4.5 acetate buffer as detailed below: The samples were prepared by adding an excess of each tested bulk (salt or native EYP001) to a given volume of test medium. […] In FaSSIF medium, the soluble concentration was assessed after 24 hours of stirring. […] At each time point, the “supernatant” was isolated and diluted in a solvent mixture allowing its injection into the chromatographic system. The concentration in solution in the test medium was determined by HPLC with external standardization.

[6] = Pharmacokinetic study Experiment #4, oral administration in rats; format: in vivo, rat; conditions: 10 mg EqEYP001/Kg
Procedure: In a fourth study (Experiment #4), EYP001, EYP001 L-lysine salt amorphous Form and EYP001 L-lysine salt Form VI in aqueous formulations (0.5% CMC, 0.25% Tween 80, water) were orally administrated at a dose of 10 mg EqEYP001/Kg in 8 male rats for each compound (4 rats on day 1 and 4 rats on day 2 for each compound). Blood samples were taken at 0.25 h, 0.5 h, 1 h, 2 h, 4 h, 6 h, 8 h, 12 h, and 24 h after oral administration.

[7] = Pharmacokinetic study Experiment #1, oral administration in rats; format: in vivo, rat; conditions: 50 mg EqEYP001/Kg, male rats, aqueous formulation
Procedure: In a first study (Experiment #1), EYP001, EYP001 Meglumine salt, and EYP001 L-lysine salt Form I in aqueous formulations (0.5% CMC, 0.25% Tween 80, water) were orally administrated at a dose of 50 mg EqEYP001/Kg in 3 male rats for each compound. Blood samples were taken at 0.25 h, 0.5 h, 1 h, 2 h, 4 h, 6 h, 8 h, 12 h, and 24 h after oral administration.

[8] = listed as EYP001 L-lysine salt (form VI)
[9] = male rats, aqueous formulation, listed as EYP001 L-lysine salt (Form VI)
[10] = male rats, versus EYP001 free acid, listed as EYP001 L-lysine salt (Form VI)

## C1COCCN1.O=C(O)c1cc2c(Cl)c(N3CCN(S(=O)(=O)c4c(Cl)cccc4Cl)CC3)ccc2o1 [EYP001 Morpholine salt, reference compound]
[1]
  Soluble fraction: 0.22 mg/mL of EYP001
  pH: 6.5

## O=C(O)c1cc2c(Cl)c(N3CCN(S(=O)(=O)c4c(Cl)cccc4Cl)CC3)ccc2o1.c1ccc(CCNCc2ccccc2)cc1 [EYP001 Benethamine salt (Polymorph II)]
[1]
  Soluble fraction: 0.01 mg/mL of EYP001
  pH: 6.5

## NC1CCCCC1.O=C(O)c1cc2c(Cl)c(N3CCN(S(=O)(=O)c4c(Cl)cccc4Cl)CC3)ccc2o1
[1]
  Soluble fraction: 0.19 mg/mL of EYP001
  pH: 6.5

## NCCCC[C@H](N)C(=O)O.O=C(O)c1cc2c(Cl)c(N3CCN(S(=O)(=O)c4c(Cl)cccc4Cl)CC3)ccc2o1 [EYP001 L-lysine salt Form VI, L-lysine salt of 4-chloro-5-[4-(2,6-dichlorophenyl)sulfonylpiperazin-1-yl]-1-benzofuran-2-carboxylic acid]
[2]; 25° C./0% RH before sorption, listed as EYP001 L-lysine salt (Form VI)
  mass loss during preliminary drying phase: no significant mass loss
[2]; 25° C./60% RH, listed as EYP001 L-lysine salt form VI
  water uptake (DVS): 0.07%
[2]; listed as EYP001 L-lysine salt (Form VI)
  water uptake upon sorption (DVS): 0.4%
[2]; [8]
  water uptake upon sorption (DVS): 0.4%
  hygroscopicity (DVS): non-hygroscopic
[2]; 25° C., listed as EYP001 L-lysine salt (Form VI)
  maximum hysteresis sorption/desorption: 0.15%
[2]; listed as EYP001 L-lysine salt form VI
  hygroscopicity (DVS): non-hygroscopic
[3]; TGA step 1
  Start (° C.): 223 °C
  Stop (° C.): 275 °C
  TEndset (° C.): 262 °C
  TOnset (° C.): 251 °C
  Δm (%) mass loss upon heating: 11.2%
[3]; TGA step 2
  Start (° C.): 275 °C
  Stop (° C.): 480 °C
  TEndset (° C.): 344 °C
  TOnset (° C.): 313 °C
  Δm (%) mass loss upon heating: 58.4%
[3]; heater ramp 10 ° C./min, nitrogen, listed as EYP001 L-lysine salt (Form VI)
  onset temperature of thermal decomposition (TGA): 251 °C
[3]; upon heating, listed as EYP001 L-lysine salt (Form VI)
  mass loss before the beginning of thermal decomposition (TGA): no mass loss
[4]; after 0.5 h
  Soluble fraction: 0.035 mg/mL of EYP001
[4]; after 1 h
  Soluble fraction: 0.033 mg/mL of EYP001
[5]; after 0.5 h, listed as EYP001 L-Lysine salt (Form VI)
  Soluble fraction: 0.50 mg/mL of EYP001
[5]; after 1 h, listed as EYP001 L-Lysine salt (Form VI)
  Soluble fraction: 0.75 mg/mL of EYP001
[5]; after 2 h, listed as EYP001 L-Lysine salt (Form VI)
  Soluble fraction: 0.90 mg/mL of EYP001
[5]; after 24 h, listed as EYP001 L-Lysine salt (Form VI)
  Soluble fraction: 1.18 mg/mL of EYP001
[5]; pH given with the soluble fraction, after 2 h
  pH: (pH = 4.9)
[5]; pH printed with the soluble fraction, after 0.5 h, listed as EYP001 L-Lysine salt (Form VI)
  pH: (pH = 5.0)
[5]; pH printed with the soluble fraction, after 1 h, listed as EYP001 L-Lysine salt (Form VI)
  pH: (pH = 4.9)
[5]; pH printed with the soluble fraction, after 24 h, listed as EYP001 L-Lysine salt (Form VI)
  pH: (pH = 4.9)
[6]; [9]
  Mean AUClast: 4612.3 ng·h/mL
  Mean Cmax: 2399.2 ng/mL
[6]; [10]
  % increase/EYP001 (AUClast): +36.6%
  % increase/EYP001 (Cmax): +66.1%
[6]; rat
  C max compared to EYP001 free acid: higher C max
  exposure (AUC0-24) compared to EYP001 free acid: superior exposure
  variability of the C max (CV %) compared to EYP001 free acid: strongly reduced
  variability of the exposure (CV %) compared to EYP001 free acid: strongly reduced

## O=C(O)c1cc2c(Cl)c(N3CCN(S(=O)(=O)c4c(Cl)cccc4Cl)CC3)ccc2o1.c1ccc(CCNCc2ccccc2)cc1 [EYP001 Benethamine salt (Polymorph I)]
[1]
  Soluble fraction: 0.01 mg/mL of EYP001
  pH: 6.6

## CNCC(O)C(O)C(O)C(O)CO.O=C(O)c1cc2c(Cl)c(N3CCN(S(=O)(=O)c4c(Cl)cccc4Cl)CC3)ccc2o1 [EYP001 Meglumine salt, reference compound]
[7]
  Mean AUC0-24: 33076 ng·h/mL
  Mean Cmax: 5372 ng/mL
